In patent US7402602B2 (priority 2001, dated 2008):

| melting point | Structure (SMILES) |
| --- | --- |
| 160 to 161 °C | CC(C)Cc1ccc(Cc2nc(-c3ccc(-c4ccccc4)cc3)c[nH]2)cc1 [Example 1, 4-(1,1′-biphenyl-4-yl)-2-(4-isobutylbenzyl)-1H-imidazole] |
| 106 to 108 °C | c1ccc(CCCc2nc(-c3ccccc3)c[nH]2)cc1 [Example 3, 4-phenyl-2-(3-phenylpropyl)-1H-imidazole] |
| 68 to 70 °C | Fc1ccc(-c2c[nH]c(CC3CCCCC3)n2)cc1 [Example 6, 2-(cyclohexylmethyl)-4-(4-fluorophenyl)1H-imidazole] |
| 104.9 °C | c1ccc(-c2ccc(-c3c[nH]c(CCC4CCCCC4)n3)cc2)cc1 [Example 11, 4-(1,1′-biphenyl-4-yl)-2-(2-cyclohexylethyl)-1H-imidazole] |
| 104.8 °C | CCCCCCc1nc(-c2ccc(-c3ccccc3)cc2)c[nH]1 [Example 12, 4-(1,1′-biphenyl-4-yl)-2-hexyl-1H-imidazole] |
| 197 to 198 °C | CCCC(CCC)c1nc(-c2ccc(-c3ccccc3)cc2)c[nH]1 [Example 16, 4-(1,1′-biphenyl-4-yl)-2-(1-propylbutyl)-1H-imidazole] |
| 104 to 105 °C | c1ccc(-c2ccc(-c3c[nH]c(CC4CCCCC4)n3)cc2)cc1 [Example 17, 4-(1,1′-biphenyl-4-yl)-2-(cyclohexylmethyl)-1H-imidazole] |
| 118 to 119 °C | c1ccc(-c2ccc(-c3c[nH]c(CCCC4CCCCC4)n3)cc2)cc1 [Example 18, 4-(1,1′-biphenyl-4-yl)-2-(3-cyclohexylpropyl)-1H-imidazole] |

The next lines start with the compound.

| Structure (SMILES) | melting point |
| --- | --- |
| CCCC(CCC)c1nc(-c2ccc(F)cc2)c[nH]1 | 217.5 °C |
| CCCCCCc1nc(-c2ccc(CC(C)C)cc2)c[nH]1 [Example 2, 2-hexyl-4-(4-isobutylphenyl)-1H-imidazole] | 89 to 90 °C |
| CCCCCC(CCCCC)c1nc(-c2ccccc2)c[nH]1 [Example 4, 2-(1-pentylhexyl)-4-phenyl-1H-imidazole] | 111.2 °C |
| CCCCCC(CCCCC)c1nc(-c2ccc(F)cc2)c[nH]1 [Example 5, 4-(4-fluorophenyl)-2-(1-pentylhexyl)-1H-imidazole] | 134.6 °C |
| CCCCCC(CCCCC)c1nc(-c2ccc(-c3ccccc3)cc2)c[nH]1 [Example 7, 4-(1,1′-biphenyl-4-yl)-2-(1-pentylhexyl)-1H-imidazole] | 173.6 °C |
| CCCC(CCC)c1nc(-c2ccc(C(C)(C)C)cc2)c[nH]1 [Example 8, 4-(4-tert-butylphenyl)-2-(1-propylbutyl)-1H-imidazole] | 200 to 202 °C |
| CCCC(CCC)c1nc(-c2ccc(-c3ccc(Br)cc3)cc2)c[nH]1 [Example 10, 4-(4′-bromo-1,1′-biphenyl-4-yl)-2-(1-propylbutyl)-1H-imidazole] | 182.8 °C |
| CC(C)Cc1ccc(C(C)c2nc(-c3ccc(-c4ccccc4)cc3)c[nH]2)cc1 (stereo not drawn) [Example 13, 4-(1,1′-biphenyl-4-yl)-2-[1-(4-isobutylphenyl)ethyl]-1H-imidazole] | 172.7 °C |
| CC(C)Cc1ccc(C(C)c2nc(-c3ccc(F)cc3)c[nH]2)cc1 (stereo not drawn) [Example 14, 4-(4-fluorophenyl)-2-[1-(4-isobutylphenyl)ethyl]-1H-imidazole] | 116 °C |
| CC(c1ccccc1)c1nc(-c2ccc(-c3ccccc3)cc2)c[nH]1 (stereo not drawn) [Example 15, 4-(1,1′-biphenyl-4-yl)-2-(1-phenylethyl)-1H-imidazole] | 165 to 166 °C |
